Test results from paper PMC10480310 (iScience, 2023).

Biological target: TEK receptor tyrosine kinase (Homo sapiens, UniProt Q02763)
Experiment: phospho-TEK ELISA on lysates of Ang1-stimulated HUVECs
Assay type: cell-based

TEK receptor tyrosine kinase, sequence (Q02763 23-1124): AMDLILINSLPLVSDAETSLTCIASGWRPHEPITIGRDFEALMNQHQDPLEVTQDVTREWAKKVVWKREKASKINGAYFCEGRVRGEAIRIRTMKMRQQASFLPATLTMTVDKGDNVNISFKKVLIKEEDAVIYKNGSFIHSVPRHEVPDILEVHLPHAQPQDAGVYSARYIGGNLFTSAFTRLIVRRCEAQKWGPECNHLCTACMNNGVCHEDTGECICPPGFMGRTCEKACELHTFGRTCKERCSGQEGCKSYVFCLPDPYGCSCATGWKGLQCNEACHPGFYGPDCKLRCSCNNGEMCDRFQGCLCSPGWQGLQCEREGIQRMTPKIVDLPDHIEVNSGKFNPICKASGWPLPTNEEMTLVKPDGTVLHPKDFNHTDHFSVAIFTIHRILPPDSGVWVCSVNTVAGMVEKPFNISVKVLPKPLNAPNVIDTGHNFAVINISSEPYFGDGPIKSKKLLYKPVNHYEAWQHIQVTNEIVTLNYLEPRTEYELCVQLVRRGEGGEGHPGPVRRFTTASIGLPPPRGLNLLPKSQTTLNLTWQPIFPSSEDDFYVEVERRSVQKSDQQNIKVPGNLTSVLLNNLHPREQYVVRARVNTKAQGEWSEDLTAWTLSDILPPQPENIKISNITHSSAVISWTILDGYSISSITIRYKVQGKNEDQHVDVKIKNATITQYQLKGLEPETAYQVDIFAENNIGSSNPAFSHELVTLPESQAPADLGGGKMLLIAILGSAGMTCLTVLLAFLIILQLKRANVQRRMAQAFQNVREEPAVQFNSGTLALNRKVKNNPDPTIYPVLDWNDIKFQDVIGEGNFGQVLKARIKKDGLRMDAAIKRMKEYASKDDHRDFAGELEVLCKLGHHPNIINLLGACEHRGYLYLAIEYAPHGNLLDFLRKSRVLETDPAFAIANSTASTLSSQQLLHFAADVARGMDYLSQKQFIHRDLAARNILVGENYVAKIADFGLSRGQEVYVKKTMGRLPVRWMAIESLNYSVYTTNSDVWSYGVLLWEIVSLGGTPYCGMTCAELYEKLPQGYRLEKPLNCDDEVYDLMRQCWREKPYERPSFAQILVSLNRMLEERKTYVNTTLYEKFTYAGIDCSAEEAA

IC50: 4.72 µM
SMILES: c1cc(-c2cnn3cc(-c4ccc(OCCN5CCCCC5)cc4)cnc23)ccn1 [DM, Dorsomorphin]
